One experiment deals with Adenosine Receptor a2A (Homo sapiens, UniProt P29274). The experiment is described as follows: Adenosine Receptor a2A ANT. To be noted: antagonist; read-out: pIC50 Adenosine Receptor a2A ANT (converted). The source says: (§1) ANT = antagonist (pIC50), AG = agonist (pEC50). pIC50 and pEC50 are the negative logarithms10 of IC50 and EC50, respectively. Click here for file
The target of the next experiment is Adrenergic Receptor a1B (Homo sapiens, UniProt P35368). Kind of experiment: Adrenergic Receptor a1B ANT.
Excerpt: as §1

Experiment [1] concerns the target T1, Adrenergic Receptor b2 (Homo sapiens, UniProt P07550). The experiment is described as follows: Adrenergic Receptor b2 AG. To be noted: agonist; read-out: pEC50 Adrenergic Receptor b2 AG (converted).
Excerpt: as §1

Experiment [2] concerns the target T1, Adrenergic Receptor b2. Kind of experiment: Adrenergic Receptor b2 ANT. To be noted: antagonist; read-out: pIC50 Adrenergic Receptor b2 ANT (converted).
Excerpt: as §1

A further experiment addresses Aurora B Kinase (Homo sapiens, UniProt Q96GD4). The experiment is described as follows: Aurora B Kinase ANT. Type of experiment: biochemical. To be noted: antagonist; read-out: pIC50 Aurora B Kinase ANT (converted).
Excerpt: as §1

The target of a further experiment is Dopamin Receptor D1 (Homo sapiens, UniProt P21728). The experiment is described as follows: Dopamin Receptor D1 ANT. To be noted: antagonist; read-out: pIC50 Dopamin Receptor D1 ANT (converted).
Chain of Dopamin Receptor D1 (P21728 whole entry): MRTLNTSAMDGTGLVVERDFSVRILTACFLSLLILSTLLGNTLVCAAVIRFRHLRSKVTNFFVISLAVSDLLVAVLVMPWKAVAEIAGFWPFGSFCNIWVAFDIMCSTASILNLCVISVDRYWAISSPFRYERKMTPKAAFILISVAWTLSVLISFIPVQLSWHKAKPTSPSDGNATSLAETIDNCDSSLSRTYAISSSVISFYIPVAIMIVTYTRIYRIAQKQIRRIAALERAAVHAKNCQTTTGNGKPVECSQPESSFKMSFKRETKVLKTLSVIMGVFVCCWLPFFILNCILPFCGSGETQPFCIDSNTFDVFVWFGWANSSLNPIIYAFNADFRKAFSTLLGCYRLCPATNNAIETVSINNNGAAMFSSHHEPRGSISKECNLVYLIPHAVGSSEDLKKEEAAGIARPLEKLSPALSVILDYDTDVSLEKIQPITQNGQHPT
Excerpt: as §1

The target of the next experiment is Dopamin Receptor D2 (Homo sapiens, UniProt P14416). Kind of experiment: Dopamin receptor D2 ANT. The conditions noted are these: antagonist; read-out: pIC50 Dopamin receptor D2 ANT (converted).
Chain of Dopamin Receptor D2 (P14416 whole entry): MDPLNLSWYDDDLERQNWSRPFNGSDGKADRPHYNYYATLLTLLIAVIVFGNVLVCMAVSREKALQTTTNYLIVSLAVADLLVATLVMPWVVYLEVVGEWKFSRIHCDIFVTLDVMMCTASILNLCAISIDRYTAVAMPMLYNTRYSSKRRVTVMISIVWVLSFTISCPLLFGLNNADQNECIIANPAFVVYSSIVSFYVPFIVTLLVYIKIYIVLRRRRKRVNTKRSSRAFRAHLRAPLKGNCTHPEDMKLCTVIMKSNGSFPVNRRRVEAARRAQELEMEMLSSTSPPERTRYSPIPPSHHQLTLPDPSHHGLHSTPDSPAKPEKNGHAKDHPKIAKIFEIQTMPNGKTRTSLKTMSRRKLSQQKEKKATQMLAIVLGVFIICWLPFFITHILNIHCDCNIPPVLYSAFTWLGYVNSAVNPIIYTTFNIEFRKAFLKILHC
Excerpt: as §1

Another experiment deals with Monoamine Oxidase B (Homo sapiens, UniProt P27338). The experiment is described as follows: Monoamine Oxidase B ANT. Type of experiment: biochemical. To be noted: antagonist; read-out: pIC50 Monoamine Oxidase B ANT (converted).
Chain of Monoamine Oxidase B (P27338 whole entry): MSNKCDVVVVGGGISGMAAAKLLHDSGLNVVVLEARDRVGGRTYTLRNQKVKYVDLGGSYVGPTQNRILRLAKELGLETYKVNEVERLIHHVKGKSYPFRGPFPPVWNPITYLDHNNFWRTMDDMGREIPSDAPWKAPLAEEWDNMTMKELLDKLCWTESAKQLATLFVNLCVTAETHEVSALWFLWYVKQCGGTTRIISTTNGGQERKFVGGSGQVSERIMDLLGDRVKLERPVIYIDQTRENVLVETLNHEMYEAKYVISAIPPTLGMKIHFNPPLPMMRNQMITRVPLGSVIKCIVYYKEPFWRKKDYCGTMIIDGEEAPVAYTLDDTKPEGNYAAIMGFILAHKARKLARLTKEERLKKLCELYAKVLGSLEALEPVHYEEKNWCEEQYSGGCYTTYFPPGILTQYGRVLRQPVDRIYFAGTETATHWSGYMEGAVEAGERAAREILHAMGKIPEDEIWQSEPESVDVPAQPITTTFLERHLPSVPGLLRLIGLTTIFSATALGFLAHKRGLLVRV
Excerpt: as §1

Experiment [3] addresses T2, Muscarinic Receptor M2 (Homo sapiens, UniProt P08172).
T2 sequence (P08172 1-466): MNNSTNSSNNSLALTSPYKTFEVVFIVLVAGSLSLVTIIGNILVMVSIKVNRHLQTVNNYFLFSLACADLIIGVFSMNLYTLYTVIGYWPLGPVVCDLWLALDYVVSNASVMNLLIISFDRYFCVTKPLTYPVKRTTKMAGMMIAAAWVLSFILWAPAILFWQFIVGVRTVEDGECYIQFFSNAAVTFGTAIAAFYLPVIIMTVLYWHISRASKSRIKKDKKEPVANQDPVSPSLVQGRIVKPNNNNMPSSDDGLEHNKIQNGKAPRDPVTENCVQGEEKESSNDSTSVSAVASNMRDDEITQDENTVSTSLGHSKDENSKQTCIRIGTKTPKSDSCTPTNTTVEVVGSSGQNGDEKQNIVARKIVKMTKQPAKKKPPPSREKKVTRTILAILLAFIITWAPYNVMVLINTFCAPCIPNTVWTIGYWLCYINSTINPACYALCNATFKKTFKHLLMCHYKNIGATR
Kind of experiment: Muscarinic Receptor M2 AG. The conditions noted are these: agonist; read-out: pEC50 Muscarinic Receptor M2 AG (converted).
Excerpt: as §1

Experiment [4] addresses T2, Muscarinic Receptor M2. The experiment is described as follows: Muscarinic Receptor M2 ANT. To be noted: antagonist; read-out: pIC50 Muscarinic Receptor M2 ANT (converted).
Excerpt: as §1

The target in experiment [5] is Norepinephrin Transporter (Homo sapiens, UniProt P23975). Kind of experiment: Norepinephrin Transporter ANT. To be noted: antagonist; read-out: pIC50 Norepinephrin Transporter ANT (converted).
Chain of Norepinephrin Transporter (P23975 whole entry): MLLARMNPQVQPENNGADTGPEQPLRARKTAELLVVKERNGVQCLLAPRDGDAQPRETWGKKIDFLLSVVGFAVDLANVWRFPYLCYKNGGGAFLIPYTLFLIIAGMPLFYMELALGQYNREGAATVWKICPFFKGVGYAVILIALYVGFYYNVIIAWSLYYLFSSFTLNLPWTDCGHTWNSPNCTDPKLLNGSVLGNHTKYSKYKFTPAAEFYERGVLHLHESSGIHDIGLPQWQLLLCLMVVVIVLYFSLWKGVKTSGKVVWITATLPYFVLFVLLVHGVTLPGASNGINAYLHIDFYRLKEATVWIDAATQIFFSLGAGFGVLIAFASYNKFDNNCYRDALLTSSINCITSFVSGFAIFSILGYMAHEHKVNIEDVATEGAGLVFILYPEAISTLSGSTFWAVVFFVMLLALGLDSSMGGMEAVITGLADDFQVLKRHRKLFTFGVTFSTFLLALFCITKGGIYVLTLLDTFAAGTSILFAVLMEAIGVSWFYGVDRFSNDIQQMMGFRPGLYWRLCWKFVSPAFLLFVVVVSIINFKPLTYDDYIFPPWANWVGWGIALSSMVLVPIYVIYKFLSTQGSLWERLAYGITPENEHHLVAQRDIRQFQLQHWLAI
Excerpt: as §1

In another experiment the target is Opioid Receptor k (Homo sapiens, UniProt P41145). Kind of experiment: Opioid Receptor k ANT. The conditions noted are these: antagonist; read-out: pIC50 Opioid Receptor k ANT (converted).
Excerpt: as §1

Experiment [6] has as its target T3, Opioid Receptor m (Homo sapiens, UniProt P35372). Kind of experiment: Opioid Receptor m AG. To be noted: agonist; read-out: pEC50 Opioid Receptor m AG (converted).
Excerpt: as §1

Experiment [7] deals with T3, Opioid Receptor m. The experiment is described as follows: Opioid Receptor m ANT. The conditions noted are these: antagonist; read-out: pIC50 Opioid Receptor m ANT (converted).
Excerpt: as §1

In another experiment the target is Phosphodiesterase 4B (Homo sapiens, UniProt Q07343). The experiment is described as follows: Phosphodiesterase 4B ANT. Type of experiment: biochemical. To be noted: antagonist; read-out: pIC50 Phosphodiesterase 4B ANT (converted).
Chain of Phosphodiesterase 4B (Q07343 whole entry): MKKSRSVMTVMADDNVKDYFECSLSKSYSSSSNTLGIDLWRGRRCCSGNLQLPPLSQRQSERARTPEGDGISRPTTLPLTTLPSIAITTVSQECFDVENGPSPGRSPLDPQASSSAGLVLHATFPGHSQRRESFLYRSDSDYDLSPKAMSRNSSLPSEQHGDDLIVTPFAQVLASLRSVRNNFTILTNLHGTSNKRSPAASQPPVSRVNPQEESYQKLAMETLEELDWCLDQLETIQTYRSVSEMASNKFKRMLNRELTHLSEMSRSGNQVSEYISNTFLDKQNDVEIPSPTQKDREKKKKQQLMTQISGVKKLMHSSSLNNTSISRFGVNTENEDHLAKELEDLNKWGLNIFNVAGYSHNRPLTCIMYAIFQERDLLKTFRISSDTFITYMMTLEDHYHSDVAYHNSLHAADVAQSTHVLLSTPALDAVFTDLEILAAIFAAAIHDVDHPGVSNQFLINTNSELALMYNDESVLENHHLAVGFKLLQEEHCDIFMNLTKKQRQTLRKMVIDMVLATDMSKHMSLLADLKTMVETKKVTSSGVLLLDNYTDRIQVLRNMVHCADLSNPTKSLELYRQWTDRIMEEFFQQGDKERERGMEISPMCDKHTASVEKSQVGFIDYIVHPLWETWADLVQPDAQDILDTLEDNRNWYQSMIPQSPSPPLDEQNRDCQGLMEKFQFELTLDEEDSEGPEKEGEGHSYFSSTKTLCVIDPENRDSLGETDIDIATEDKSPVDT
Excerpt: as §1

The target in another experiment is Potassium Channel Kv1.5 (Homo sapiens, UniProt P22460). The experiment is described as follows: Potassium Channel Kv1.5 ANT. The conditions noted are these: antagonist; read-out: pIC50 Potassium Channel Kv1.5 ANT (converted).
Chain of Potassium Channel Kv1.5 (P22460 whole entry): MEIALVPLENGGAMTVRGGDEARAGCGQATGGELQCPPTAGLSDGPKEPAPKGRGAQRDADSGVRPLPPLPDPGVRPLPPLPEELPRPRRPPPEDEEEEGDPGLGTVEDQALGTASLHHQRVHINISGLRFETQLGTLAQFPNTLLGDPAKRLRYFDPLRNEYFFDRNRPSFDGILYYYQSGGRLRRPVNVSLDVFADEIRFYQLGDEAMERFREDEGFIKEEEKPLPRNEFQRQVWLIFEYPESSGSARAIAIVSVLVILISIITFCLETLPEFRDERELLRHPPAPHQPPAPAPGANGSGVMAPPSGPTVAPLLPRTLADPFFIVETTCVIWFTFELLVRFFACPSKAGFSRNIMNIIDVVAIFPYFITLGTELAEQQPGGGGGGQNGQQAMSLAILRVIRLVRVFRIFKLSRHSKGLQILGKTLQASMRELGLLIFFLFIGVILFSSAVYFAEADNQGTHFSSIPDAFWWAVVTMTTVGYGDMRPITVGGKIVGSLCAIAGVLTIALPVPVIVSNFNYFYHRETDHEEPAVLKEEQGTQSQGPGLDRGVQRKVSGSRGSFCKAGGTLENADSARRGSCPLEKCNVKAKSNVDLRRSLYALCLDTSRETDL
Excerpt: as §1

The next experiment has as its target Pregnane X receptor (Homo sapiens, UniProt O75469). The experiment is described as follows: Pregnane X receptor AG. To be noted: agonist; read-out: pEC50 Pregnane X receptor AG (converted).
Excerpt: as §1

For a further experiment, the target named is Serotonin Receptor 5HT1B (Homo sapiens, UniProt P28222). Kind of experiment: Serotonin Receptor 5HT1B ANT. The conditions noted are these: antagonist; read-out: pIC50 Serotonin Receptor 5HT1B ANT (converted).
Excerpt: as §1

The target of a further experiment is Serotonin Receptor 5HT2A (Homo sapiens, UniProt P28223). Kind of experiment: Serotonin Receptor 5HT2A AG. The conditions noted are these: agonist; read-out: pEC50 Serotonin Receptor 5HT2A AG (converted).
Excerpt: as §1

In the next experiment the target is T4, Serotonin Receptor 5HT3 (Homo sapiens, UniProt P46098).
T4 sequence (P46098 24-478): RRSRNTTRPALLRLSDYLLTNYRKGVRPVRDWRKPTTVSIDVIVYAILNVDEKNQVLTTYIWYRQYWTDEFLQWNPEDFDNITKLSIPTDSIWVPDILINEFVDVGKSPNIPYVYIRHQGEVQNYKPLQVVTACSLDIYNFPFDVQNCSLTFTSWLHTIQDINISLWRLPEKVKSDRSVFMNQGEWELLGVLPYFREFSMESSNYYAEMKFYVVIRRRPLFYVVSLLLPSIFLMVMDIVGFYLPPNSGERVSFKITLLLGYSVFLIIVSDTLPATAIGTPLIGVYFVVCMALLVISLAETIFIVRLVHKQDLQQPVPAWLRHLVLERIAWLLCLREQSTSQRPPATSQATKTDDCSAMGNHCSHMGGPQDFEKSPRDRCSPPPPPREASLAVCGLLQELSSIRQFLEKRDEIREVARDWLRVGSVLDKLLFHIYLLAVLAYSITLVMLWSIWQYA
The experiment is described as follows: Serotonin Receptor 5HT3 AG. To be noted: agonist; read-out: pEC50 Serotonin Receptor 5HT3 AG (converted).
Excerpt: as §1

The target of a further experiment is Serotonin Transporter (Homo sapiens, UniProt P31645). The experiment is described as follows: Serotonin Transporter ANT. The conditions noted are these: antagonist; read-out: pIC50 Serotonin Transporter ANT (converted).
Excerpt: as §1

A further experiment deals with Vasopressin Receptor V1a (Homo sapiens, UniProt P37288). The experiment is described as follows: Vasopressin Receptor V1a ANT. The conditions noted are these: antagonist; read-out: pIC50 Vasopressin Receptor V1a ANT (converted).
Chain of Vasopressin Receptor V1a (P37288 whole entry): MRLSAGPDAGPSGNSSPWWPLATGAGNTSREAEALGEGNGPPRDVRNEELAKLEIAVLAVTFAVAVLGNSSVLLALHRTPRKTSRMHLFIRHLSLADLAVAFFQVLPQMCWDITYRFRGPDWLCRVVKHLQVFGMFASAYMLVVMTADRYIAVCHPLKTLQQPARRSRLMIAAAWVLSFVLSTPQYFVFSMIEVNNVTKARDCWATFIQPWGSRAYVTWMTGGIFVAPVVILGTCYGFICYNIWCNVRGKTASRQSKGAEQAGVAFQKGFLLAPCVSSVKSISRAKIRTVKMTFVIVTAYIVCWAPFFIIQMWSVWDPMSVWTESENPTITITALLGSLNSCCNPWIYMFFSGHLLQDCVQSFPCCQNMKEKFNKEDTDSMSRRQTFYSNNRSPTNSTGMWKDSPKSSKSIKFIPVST
Excerpt: as §1

The structures appear in SMILES notation. Read-outs that look alike come from different tables or passages of the source.

T1 sequence (P07550 whole entry): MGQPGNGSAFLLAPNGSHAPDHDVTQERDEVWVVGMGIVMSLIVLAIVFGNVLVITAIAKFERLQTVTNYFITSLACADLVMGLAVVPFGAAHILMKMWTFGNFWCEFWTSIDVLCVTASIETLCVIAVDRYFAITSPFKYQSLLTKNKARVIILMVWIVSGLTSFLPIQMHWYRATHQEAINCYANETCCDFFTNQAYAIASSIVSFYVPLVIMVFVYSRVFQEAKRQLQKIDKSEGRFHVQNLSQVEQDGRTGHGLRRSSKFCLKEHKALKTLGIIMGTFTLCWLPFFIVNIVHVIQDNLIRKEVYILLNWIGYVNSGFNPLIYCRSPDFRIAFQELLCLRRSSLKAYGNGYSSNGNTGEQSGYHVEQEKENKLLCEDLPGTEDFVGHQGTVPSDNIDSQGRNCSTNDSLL
T3 sequence (P35372 whole entry): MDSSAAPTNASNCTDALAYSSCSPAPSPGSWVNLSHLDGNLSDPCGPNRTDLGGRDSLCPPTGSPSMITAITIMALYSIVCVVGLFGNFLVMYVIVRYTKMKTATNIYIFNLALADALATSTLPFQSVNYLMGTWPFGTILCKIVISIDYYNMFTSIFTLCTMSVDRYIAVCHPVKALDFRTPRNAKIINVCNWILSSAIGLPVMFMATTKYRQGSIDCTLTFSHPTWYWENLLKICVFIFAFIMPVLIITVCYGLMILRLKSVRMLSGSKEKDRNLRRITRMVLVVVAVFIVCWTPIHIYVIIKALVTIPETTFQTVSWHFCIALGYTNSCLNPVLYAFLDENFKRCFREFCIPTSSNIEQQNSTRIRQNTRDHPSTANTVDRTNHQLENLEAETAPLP
Chain of Aurora B Kinase (Q96GD4 whole entry): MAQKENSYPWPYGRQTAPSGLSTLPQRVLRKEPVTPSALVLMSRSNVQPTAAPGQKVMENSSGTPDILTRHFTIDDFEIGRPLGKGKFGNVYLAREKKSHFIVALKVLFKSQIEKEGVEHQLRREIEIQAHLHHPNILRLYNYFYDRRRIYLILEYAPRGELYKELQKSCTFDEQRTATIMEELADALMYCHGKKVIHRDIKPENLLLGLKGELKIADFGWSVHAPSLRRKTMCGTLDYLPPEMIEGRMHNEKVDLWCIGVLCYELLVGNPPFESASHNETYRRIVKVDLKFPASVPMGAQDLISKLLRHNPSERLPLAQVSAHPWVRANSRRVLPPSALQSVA

In the case of `COc1ncc(-c2ccc3c(Nc4cc(C(=O)O)cc(C5CCCC5)c4)c(S(=O)(=O)NC4CC4)cnc3c2)c(OC)n1` [Compound 2], the IC50 on Adenosine Receptor a2A was 31.6 µM; on Adrenergic Receptor a1B (antagonist, read-out: pIC50 Adrenergic Receptor a1B ANT (converted)) it was 31.6 µM; on Adrenergic Receptor b2 [2], 31.6 µM; at Aurora B Kinase, 31.6 µM; on Dopamin Receptor D1 it was 31.6 µM; at Dopamin Receptor D2 it was 100 µM. Besides, the IC50 on Monoamine Oxidase B was 15.8 µM; on Muscarinic Receptor M2 [4], 15.8 µM; in experiment [5], 100 µM; on Opioid Receptor k it was 50.1 µM; at Opioid Receptor m [7], 31.6 µM; on Phosphodiesterase 4B it was 0.501 µM. In addition, the IC50 at Potassium Channel Kv1.5 was 50.1 µM; on Serotonin Receptor 5HT1B, 31.6 µM; on Serotonin Transporter it was 100 µM; on Vasopressin Receptor V1a it was 20 µM. In addition, the EC50 at Adrenergic Receptor b2 [1] is 31.6 µM; on Muscarinic Receptor M2 [3], 15.8 µM; on Opioid Receptor m [6], 100 µM; at Pregnane X receptor, 50.1 µM; at Serotonin Receptor 5HT2A, 39.8 µM; at Serotonin Receptor 5HT3, 39.8 µM.

Regarding `COc1ncc(-c2ccc3c(Nc4cc(Oc5cc(F)cc(F)c5)cc(C(=O)O)c4)c(S(=O)(=O)NC4CC4)cnc3c2)c(OC)n1` [Compound 1], the IC50 was 31.6 µM on Adenosine Receptor a2A; 12.6 µM on Adrenergic Receptor a1B; 31.6 µM on Adrenergic Receptor b2 [2]; 7.94 µM at Aurora B Kinase; 31.6 µM on Dopamin Receptor D1; 39.8 µM on Dopamin Receptor D2. The IC50 at Monoamine Oxidase B is 6.31 µM; at Muscarinic Receptor M2 [4], 15.8 µM; in experiment [5], 100 µM; on Opioid Receptor k it was 31.6 µM; at Opioid Receptor m [7], 63.1 µM; at Phosphodiesterase 4B, 1.26 µM. The IC50 was 50.1 µM at Potassium Channel Kv1.5, 31.6 µM on Serotonin Receptor 5HT1B, 100 µM at Serotonin Transporter and 50.1 µM at Vasopressin Receptor V1a. Moreover, the EC50 on Adrenergic Receptor b2 [1] is 31.6 µM; at Muscarinic Receptor M2 [3], 15.8 µM; on Opioid Receptor m [6], 100 µM; at Pregnane X receptor, 50.1 µM; on Serotonin Receptor 5HT2A, 39.8 µM; on Serotonin Receptor 5HT3, 50.1 µM.

Source of the values: publication PMC4178217, “Quinoline 3-sulfonamides inhibit lactate dehydrogenase A and reverse aerobic glycolysis in cancer cells” (Cancer & Metabolism, 2013).
